{"source": "ChEMBL document CHEMBL5365536", "about": "“Synthesis of mizoribine prodrugs and their in vivo evaluation as immunosuppressive agents” (2023)", "type_in_all_cases": "functional", "key": {"[1]": {"system": "Mus musculus", "experiment": "Immunosuppressive activity in anti-CD3-stimulated mouse assessed as reduction in IL-2 level in whole blood at 50 mg/kg, po measured after 1 hr by flow cytometry analysis", "parameters": "scale not given: the % may be the effect or the level left"}, "[2]": {"system": "Mus musculus", "experiment": "Immunosuppressive activity in anti-CD3-stimulated mouse assessed as reduction in IL-2 level in whole blood at 50 mg/kg, po measured after 8 hr by flow cytometry analysis", "parameters": "scale not given: the % may be the effect or the level left"}, "[3]": {"system": "Mus musculus", "experiment": "Immunosuppressive activity in anti-CD3-stimulated mouse assessed as reduction in IL-2 level in whole blood at 50 mg/kg, po measured after 4 hrs by flow cytometry analysis", "parameters": "scale not given: the % may be the effect or the level left"}, "[4]": {"system": "Mus musculus", "experiment": "Immunosuppressive activity in anti-CD3-stimulated mouse assessed as reduction in IL-2 level in whole blood at 65 mg/kg, po measured after 8 hrs by flow cytometry analysis", "parameters": "scale not given: the % may be the effect or the level left"}, "[5]": {"system": "Mus musculus", "experiment": "Immunosuppressive activity in anti-CD3-stimulated mouse assessed as reduction in IL-2 level in whole blood at 65 mg/kg, po measured after 1 hr by flow cytometry analysis", "parameters": "scale not given: the % may be the effect or the level left"}, "[6]": {"system": "Mus musculus", "experiment": "Immunosuppressive activity in anti-CD3-stimulated mouse assessed as reduction in IL-2 level in whole blood at 65 mg/kg, po measured after 4 hrs by flow cytometry analysis", "parameters": "scale not given: the % may be the effect or the level left"}, "[7]": {"system": "Mus musculus", "experiment": "Immunosuppressive activity in anti-CD3-stimulated mouse assessed as reduction in IL-2 level in whole blood at 25 mg/kg, po measured after 1 hr by flow cytometry analysis", "parameters": "scale not given: the % may be the effect or the level left"}, "[8]": {"system": "Mus musculus", "experiment": "Immunosuppressive activity in anti-CD3-stimulated mouse assessed as reduction in IL-2 level in whole blood at 25 mg/kg, po measured after 4 hr by flow cytometry analysis", "parameters": "scale not given: the % may be the effect or the level left"}, "[9]": {"system": "Mus musculus", "experiment": "Immunosuppressive activity in anti-CD3-stimulated mouse assessed as reduction in IL-2 level in whole blood at 25 mg/kg, po measured after 8 hr by flow cytometry analysis", "parameters": "scale not given: the % may be the effect or the level left"}, "[10]": {"system": "Mus musculus", "experiment": "Immunosuppressive activity in anti-CD3-stimulated mouse assessed as reduction in IL-2 level in whole blood at 40 mg/kg, po measured after 4 hrs by flow cytometry analysis", "parameters": "scale not given: the % may be the effect or the level left"}, "[11]": {"system": "Mus musculus", "experiment": "Immunosuppressive activity in anti-CD3-stimulated mouse assessed as reduction in IL-2 level in whole blood at 40 mg/kg, po measured after 1 hr by flow cytometry analysis", "parameters": "scale not given: the % may be the effect or the level left"}, "[12]": {"system": "Mus musculus", "experiment": "Immunosuppressive activity in anti-CD3-stimulated mouse assessed as reduction in IL-2 level in whole blood at 40 mg/kg, po measured after 8 hrs by flow cytometry analysis", "parameters": "scale not given: the % may be the effect or the level left"}, "[13]": {"system": "Mus musculus", "experiment": "Immunosuppressive activity in BALB/c mouse allografted with C57 mouse cardiac tissue assessed as suppression of graft rejection by measuring graft median survival time at 83 mg/kg, po"}, "[14]": {"system": "Mus musculus", "experiment": "Immunosuppressive activity in BALB/c mouse allografted with C57 mouse cardiac tissue assessed as suppression of graft rejection by measuring graft median survival time at 83 mg/kg, po in presence of tacrolimus"}, "[15]": {"system": "Mus musculus", "experiment": "Immunosuppressive activity in anti-CD3-stimulated mouse assessed as reduction in IL-2 level in whole blood at 55 mg/kg, po measured after 4 hrs by flow cytometry analysis", "parameters": "scale not given: the % may be the effect or the level left"}, "[16]": {"system": "Mus musculus", "experiment": "Immunosuppressive activity in BALB/c mouse allografted with C57 mouse cardiac tissue assessed as suppression of graft rejection by measuring graft median survival time at 112 mg/kg, po"}, "[17]": {"system": "Mus musculus", "experiment": "Immunosuppressive activity in anti-CD3-stimulated mouse assessed as reduction in IL-2 level in whole blood at 55 mg/kg, po measured after 8 hrs by flow cytometry analysis", "parameters": "scale not given: the % may be the effect or the level left"}, "[18]": {"system": "Mus musculus", "experiment": "Immunosuppressive activity in BALB/c mouse allografted with C57 mouse cardiac tissue assessed as suppression of graft rejection by measuring graft median survival time at 112 mg/kg, po in presence of tacrolimus"}, "[19]": {"system": "Mus musculus", "experiment": "Immunosuppressive activity in anti-CD3-stimulated mouse assessed as reduction in IL-2 level in whole blood at 55 mg/kg, po measured after 1 hr by flow cytometry analysis", "parameters": "scale not given: the % may be the effect or the level left"}, "[20]": {"system": "Mus musculus", "experiment": "Immunosuppressive activity in BALB/c mouse allografted with C57 mouse cardiac tissue assessed as suppression of graft rejection by measuring graft median survival time at 4 mg/kg, IM"}}}
{"smiles": "COc1c(C)c2c(c(O)c1C/C=C(\\C)CCC(=O)OCCN1CCOCC1)C(=O)OC2", "note": "[MYCOPHENOLATE MOFETIL]", "values": [{"measurement": "Activity", "setting": "[1]", "value": 3.4, "unit": "%"}, {"measurement": "Activity", "setting": "[2]", "value": 81.7, "unit": "%"}, {"measurement": "Activity", "setting": "[3]", "value": 52.3, "unit": "%"}]}
{"smiles": "CC(C)CCOC(=O)C[C@H](NP(=O)(OC[C@H]1O[C@@H](n2cnc(C(N)=O)c2O)[C@H](O)[C@@H]1O)Oc1ccccc1)C(=O)OCCC(C)C", "note": "(stereo not given in full)", "values": [{"measurement": "Activity", "setting": "[4]", "value": 17.5, "unit": "%"}, {"measurement": "Activity", "setting": "[5]", "value": 14.7, "unit": "%"}, {"measurement": "Activity", "setting": "[6]", "value": 18.3, "unit": "%"}]}
{"smiles": "NC(=O)c1ncn([C@@H]2O[C@H](CO)[C@@H](O)[C@H]2O)c1O", "note": "[MIZORIBINE]", "values": [{"measurement": "Activity", "setting": "[7]", "value": 55.6, "unit": "%"}, {"measurement": "Activity", "setting": "[8]", "value": 8.6, "unit": "%"}, {"measurement": "Activity", "setting": "[9]", "value": 7.3, "unit": "%"}]}
{"smiles": "CC(C)(C)C(=O)NC(=O)c1ncn([C@@H]2O[C@H](COC(=O)C(C)(C)C)[C@@H](O)[C@H]2O)c1O", "values": [{"measurement": "Activity", "setting": "[10]", "value": 64.4, "unit": "%"}, {"measurement": "Activity", "setting": "[11]", "value": 19.4, "unit": "%"}, {"measurement": "Activity", "setting": "[12]", "value": 61.3, "unit": "%"}, {"measurement": "MST", "setting": "[13]", "value": 11, "unit": "days"}, {"measurement": "MST", "setting": "[14]", "value": 55, "unit": "days"}]}
{"smiles": "NC(=O)c1ncn([C@@H]2O[C@H](COC(=O)[C@@H](N)CC(=O)OCc3ccccc3)[C@@H](O)[C@H]2O)c1O.O=C(O)C(F)(F)F", "values": [{"measurement": "Activity", "setting": "[15]", "value": 32.7, "unit": "%"}, {"measurement": "MST", "setting": "[16]", "value": 11, "unit": "days"}, {"measurement": "Activity", "setting": "[17]", "value": 27.7, "unit": "%"}, {"measurement": "MST", "setting": "[18]", "value": 15.5, "unit": "days"}, {"measurement": "Activity", "setting": "[19]", "value": 77, "unit": "%"}]}
{"smiles": "C=CC[C@@H]1/C=C(\\C)C[C@H](C)C[C@H](OC)[C@H]2O[C@@](O)(C(=O)C(=O)N3CCCC[C@H]3C(=O)O[C@H](/C(C)=C/[C@@H]3CC[C@@H](O)[C@H](OC)C3)[C@H](C)[C@@H](O)CC1=O)[C@H](C)C[C@@H]2OC", "note": "[TACROLIMUS ANHYDROUS]", "values": [{"measurement": "MST", "setting": "[20]", "value": 8, "unit": "days"}]}
